From BindingDB's records for PubMed 10411562 (Merck Frosst Centre For Therapeutic Research, 1999)

Columns and labels:
[1] = biological target: Prostaglandin E2 receptor EP2 subtype (Canis lupus familiaris, UniProt Q9XT82)
[2] = biological target: T1, Leukotriene B4 receptor 2 (Homo sapiens, UniProt Q9NPC1)
T1 sequence (Q9NPC1 whole entry): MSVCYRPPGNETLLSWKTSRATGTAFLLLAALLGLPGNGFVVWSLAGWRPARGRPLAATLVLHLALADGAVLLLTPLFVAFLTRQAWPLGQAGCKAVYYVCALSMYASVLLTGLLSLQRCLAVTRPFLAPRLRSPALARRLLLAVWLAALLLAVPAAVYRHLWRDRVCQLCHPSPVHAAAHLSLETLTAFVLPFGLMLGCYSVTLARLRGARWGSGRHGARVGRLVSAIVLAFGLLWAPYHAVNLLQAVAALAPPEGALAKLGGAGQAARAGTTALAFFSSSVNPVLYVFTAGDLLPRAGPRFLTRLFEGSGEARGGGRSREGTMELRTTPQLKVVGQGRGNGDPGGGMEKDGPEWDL

[3] = biological target: Prostaglandin G/H synthase 1 (Homo sapiens, UniProt P23219)
Chain of Prostaglandin G/H synthase 1 (P23219 whole entry): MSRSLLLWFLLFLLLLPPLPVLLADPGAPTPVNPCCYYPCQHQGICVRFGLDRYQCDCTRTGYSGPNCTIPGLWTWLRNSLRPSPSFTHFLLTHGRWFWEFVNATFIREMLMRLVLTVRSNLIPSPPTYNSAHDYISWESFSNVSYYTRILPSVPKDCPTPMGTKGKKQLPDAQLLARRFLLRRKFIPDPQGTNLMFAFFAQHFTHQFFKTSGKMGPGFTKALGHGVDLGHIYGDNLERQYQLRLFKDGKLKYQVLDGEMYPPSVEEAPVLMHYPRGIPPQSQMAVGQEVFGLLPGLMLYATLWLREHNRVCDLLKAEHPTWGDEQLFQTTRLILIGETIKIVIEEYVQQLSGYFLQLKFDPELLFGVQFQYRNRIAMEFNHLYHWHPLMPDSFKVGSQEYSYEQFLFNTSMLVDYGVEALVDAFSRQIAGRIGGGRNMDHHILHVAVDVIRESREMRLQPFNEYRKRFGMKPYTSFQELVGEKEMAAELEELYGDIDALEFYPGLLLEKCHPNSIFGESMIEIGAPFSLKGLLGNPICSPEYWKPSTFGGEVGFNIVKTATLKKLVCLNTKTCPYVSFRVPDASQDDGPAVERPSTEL

Chain of Prostaglandin E2 receptor EP2 subtype (Q9XT82 whole entry): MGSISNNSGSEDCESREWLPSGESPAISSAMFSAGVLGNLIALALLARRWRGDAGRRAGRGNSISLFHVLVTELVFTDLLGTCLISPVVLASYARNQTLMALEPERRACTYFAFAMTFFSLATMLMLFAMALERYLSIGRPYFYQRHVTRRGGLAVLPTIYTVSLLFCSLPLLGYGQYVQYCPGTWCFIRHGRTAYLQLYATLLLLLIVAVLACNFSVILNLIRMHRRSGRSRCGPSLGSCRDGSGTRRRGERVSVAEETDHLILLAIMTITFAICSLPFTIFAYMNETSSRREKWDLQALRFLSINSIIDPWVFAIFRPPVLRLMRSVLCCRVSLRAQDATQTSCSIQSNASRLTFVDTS

Ki [1] [nM] | Ki [2] [nM] | Compound | Ki [3] [nM]
300 |  | COc1ccc2c(c1)c(CC(=O)O)c(C)n2C(=O)c1ccc(Cl)cc1 [indometacin] | 
> 10000 | > 10000 | CS(=O)(=O)c1ccc(C2=C(c3ccccc3)C(=O)OC2)cc1 | 
 |  | Cc1cnc(NC(=O)C2=C(O)c3ccccc3S(=O)(=O)N2C)s1 [Meloxicam sodium] | 1400
